Source: ChEMBL document CHEMBL4507294, “Data for DCP probe MSD-CYP11B2” (2021)

Key:
[1] = biological target: Serine/threonine-protein kinase 4 (Homo sapiens) (UniProt Q13043); details: Compound concentration 1000.0 nM
[2] = biological target: Ribosomal protein S6 kinase alpha-1 (Homo sapiens) (UniProt Q15418); details: Compound concentration 1000.0 nM
[3] = biological target: Inhibitor of nuclear factor kappa-B kinase subunit epsilon (Homo sapiens) (UniProt Q14164); details: Compound concentration 1000.0 nM
[4] = biological target: Fibroblast growth factor receptor 1 (Homo sapiens) (UniProt P11362); details: Compound concentration 1000.0 nM
[5] = biological target: Mitogen-activated protein kinase kinase kinase 20 (Homo sapiens) (UniProt Q9NYL2); details: Compound concentration 1000.0 nM
[6] = biological target: Ephrin type-B receptor 2 (Homo sapiens) (UniProt P29323); details: Compound concentration 1000.0 nM
[7] = biological target: Serine/threonine-protein kinase TAO2 (Homo sapiens) (UniProt Q9UL54); details: Compound concentration 1000.0 nM
[8] = tested on: Epidermal growth factor receptor (Homo sapiens), P00533 [UNDEFINED MUTATION]; details: Compound concentration 1000.0 nM
[9] = biological target: Dual specificity protein kinase TTK (Homo sapiens) (UniProt P33981); details: Compound concentration 1000.0 nM
[10] = biological target: Serine/threonine-protein kinase Nek4 (Homo sapiens) (UniProt P51957); details: Compound concentration 1000.0 nM
[11] = biological target: Ribosomal protein S6 kinase beta-1 (Homo sapiens) (UniProt P23443); details: Compound concentration 1000.0 nM
[12] = biological target: Mitogen-activated protein kinase 8 (Homo sapiens) (UniProt P45983); details: Compound concentration 1000.0 nM
[13] = biological target: Tyrosine-protein kinase CSK (Homo sapiens) (UniProt P41240); details: Compound concentration 1000.0 nM
[14] = biological target: Serine/threonine-protein kinase RIO2 (Homo sapiens) (UniProt Q9BVS4); details: Compound concentration 1000.0 nM
[15] = biological target: Serine/threonine-protein kinase 36 (Homo sapiens) (UniProt Q9NRP7); details: Compound concentration 1000.0 nM
[16] = biological target: Serine/threonine-protein kinase Nek11 (Homo sapiens) (UniProt Q8NG66); details: Compound concentration 1000.0 nM
[17] = biological target: Serine/threonine-protein kinase SIK2 (Homo sapiens) (UniProt Q9H0K1); details: Compound concentration 1000.0 nM
[18] = biological target: T1, 5-hydroxytryptamine receptor 3A (Homo sapiens) (UniProt P46098); details: Compound concentration 10.0 uM
T1 sequence (whole entry): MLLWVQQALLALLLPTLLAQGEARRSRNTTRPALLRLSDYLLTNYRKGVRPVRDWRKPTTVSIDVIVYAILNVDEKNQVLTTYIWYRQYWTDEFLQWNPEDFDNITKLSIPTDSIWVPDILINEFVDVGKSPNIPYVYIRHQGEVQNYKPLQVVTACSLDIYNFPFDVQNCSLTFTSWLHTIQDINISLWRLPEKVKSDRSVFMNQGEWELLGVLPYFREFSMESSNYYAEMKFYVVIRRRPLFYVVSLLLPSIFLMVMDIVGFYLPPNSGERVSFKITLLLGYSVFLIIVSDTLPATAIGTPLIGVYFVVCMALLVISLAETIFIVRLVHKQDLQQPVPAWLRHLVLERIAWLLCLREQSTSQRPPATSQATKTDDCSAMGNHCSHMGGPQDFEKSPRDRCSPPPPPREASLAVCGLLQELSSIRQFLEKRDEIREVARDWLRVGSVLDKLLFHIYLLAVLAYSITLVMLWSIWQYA

[19] = biological target: Serine/threonine-protein kinase PAK 3 (Homo sapiens) (UniProt O75914); details: Compound concentration 1000.0 nM
[20] = tested on: Leucine-rich repeat serine/threonine-protein kinase 2 (Homo sapiens), Q5S007 [G2019S]; details: Compound concentration 1000.0 nM
[21] = biological target: Myosin-IIIb (Homo sapiens) (UniProt Q8WXR4); details: Compound concentration 1000.0 nM
[22] = biological target: Casein kinase I isoform gamma-2 (Homo sapiens) (UniProt P78368); details: Compound concentration 1000.0 nM
[23] = biological target: Ephrin type-B receptor 3 (Homo sapiens) (UniProt P54753); details: Compound concentration 1000.0 nM
[24] = biological target: Protein kinase C epsilon type (Homo sapiens) (UniProt Q02156); details: Compound concentration 1000.0 nM
[25] = biological target: Epithelial discoidin domain-containing receptor 1 (Homo sapiens) (UniProt Q08345); details: Compound concentration 1000.0 nM
[26] = biological target: Casein kinase II subunit alpha' (Homo sapiens) (UniProt P19784); details: Compound concentration 1000.0 nM
[27] = tested on: Receptor-type tyrosine-protein kinase FLT3 (Homo sapiens), P36888 [D835Y]; details: Compound concentration 1000.0 nM
[28] = biological target: Serine/threonine-protein kinase MARK2 (Homo sapiens) (UniProt Q7KZI7); details: Compound concentration 1000.0 nM
[29] = biological target: Dual specificity testis-specific protein kinase 1 (Homo sapiens) (UniProt Q15569); details: Compound concentration 1000.0 nM
[30] = biological target: Inhibitor of nuclear factor kappa-B kinase subunit beta (Homo sapiens) (UniProt O14920); details: Compound concentration 1000.0 nM
[31] = biological target: SRSF protein kinase 3 (Homo sapiens) (UniProt Q9UPE1); details: Compound concentration 1000.0 nM
[32] = biological target: Serine/threonine-protein kinase B-raf (Homo sapiens) (UniProt P15056); details: Compound concentration 1000.0 nM
[33] = biological target: Ribosomal protein S6 kinase alpha-2 (Homo sapiens) (UniProt Q15349); details: Compound concentration 1000.0 nM
[34] = biological target: Proto-oncogene tyrosine-protein kinase ROS (Homo sapiens) (UniProt P08922); details: Compound concentration 1000.0 nM
[35] = biological target: STE20-like serine/threonine-protein kinase (Homo sapiens) (UniProt Q9H2G2); details: Compound concentration 1000.0 nM
[36] = biological target: Ephrin type-A receptor 4 (Homo sapiens) (UniProt P54764); details: Compound concentration 1000.0 nM
[37] = biological target: Tyrosine-protein kinase Fgr (Homo sapiens) (UniProt P09769); details: Compound concentration 1000.0 nM
[38] = biological target: Macrophage colony-stimulating factor 1 receptor (Homo sapiens) (UniProt P07333); details: Compound concentration 1000.0 nM
[39] = biological target: Macrophage colony-stimulating factor 1 receptor (Homo sapiens) (UniProt P07333); details: Compound concentration 1000.0 nM; remark: listed apart in the source

Sequence of Macrophage colony-stimulating factor 1 receptor (Homo sapiens) (P07333 whole entry): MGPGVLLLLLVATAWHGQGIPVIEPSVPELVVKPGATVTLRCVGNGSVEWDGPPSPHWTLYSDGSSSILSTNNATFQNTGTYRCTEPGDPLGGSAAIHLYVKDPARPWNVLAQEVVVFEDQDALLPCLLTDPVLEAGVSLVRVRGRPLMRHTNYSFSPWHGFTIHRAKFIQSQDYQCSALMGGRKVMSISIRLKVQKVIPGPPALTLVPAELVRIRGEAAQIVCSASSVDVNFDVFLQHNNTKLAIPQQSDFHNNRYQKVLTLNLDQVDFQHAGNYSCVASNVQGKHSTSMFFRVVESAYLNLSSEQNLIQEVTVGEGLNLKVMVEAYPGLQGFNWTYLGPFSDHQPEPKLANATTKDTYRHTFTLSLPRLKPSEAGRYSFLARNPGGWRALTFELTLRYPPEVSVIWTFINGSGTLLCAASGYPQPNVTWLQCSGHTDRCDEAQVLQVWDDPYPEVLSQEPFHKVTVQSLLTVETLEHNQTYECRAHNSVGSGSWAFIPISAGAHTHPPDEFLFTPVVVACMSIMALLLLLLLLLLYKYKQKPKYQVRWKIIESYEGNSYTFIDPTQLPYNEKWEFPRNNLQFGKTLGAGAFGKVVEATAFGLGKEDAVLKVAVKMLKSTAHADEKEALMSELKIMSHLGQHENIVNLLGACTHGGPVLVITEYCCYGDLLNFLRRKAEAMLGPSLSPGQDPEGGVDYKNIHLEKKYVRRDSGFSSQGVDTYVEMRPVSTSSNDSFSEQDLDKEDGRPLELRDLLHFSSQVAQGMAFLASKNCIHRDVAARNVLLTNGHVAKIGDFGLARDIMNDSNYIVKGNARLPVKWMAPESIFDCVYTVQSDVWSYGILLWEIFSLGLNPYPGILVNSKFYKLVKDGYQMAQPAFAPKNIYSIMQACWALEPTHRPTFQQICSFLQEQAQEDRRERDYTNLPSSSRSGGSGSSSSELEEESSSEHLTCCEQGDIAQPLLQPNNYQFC
Sequence of Serine/threonine-protein kinase MARK2 (Homo sapiens) (Q7KZI7 whole entry): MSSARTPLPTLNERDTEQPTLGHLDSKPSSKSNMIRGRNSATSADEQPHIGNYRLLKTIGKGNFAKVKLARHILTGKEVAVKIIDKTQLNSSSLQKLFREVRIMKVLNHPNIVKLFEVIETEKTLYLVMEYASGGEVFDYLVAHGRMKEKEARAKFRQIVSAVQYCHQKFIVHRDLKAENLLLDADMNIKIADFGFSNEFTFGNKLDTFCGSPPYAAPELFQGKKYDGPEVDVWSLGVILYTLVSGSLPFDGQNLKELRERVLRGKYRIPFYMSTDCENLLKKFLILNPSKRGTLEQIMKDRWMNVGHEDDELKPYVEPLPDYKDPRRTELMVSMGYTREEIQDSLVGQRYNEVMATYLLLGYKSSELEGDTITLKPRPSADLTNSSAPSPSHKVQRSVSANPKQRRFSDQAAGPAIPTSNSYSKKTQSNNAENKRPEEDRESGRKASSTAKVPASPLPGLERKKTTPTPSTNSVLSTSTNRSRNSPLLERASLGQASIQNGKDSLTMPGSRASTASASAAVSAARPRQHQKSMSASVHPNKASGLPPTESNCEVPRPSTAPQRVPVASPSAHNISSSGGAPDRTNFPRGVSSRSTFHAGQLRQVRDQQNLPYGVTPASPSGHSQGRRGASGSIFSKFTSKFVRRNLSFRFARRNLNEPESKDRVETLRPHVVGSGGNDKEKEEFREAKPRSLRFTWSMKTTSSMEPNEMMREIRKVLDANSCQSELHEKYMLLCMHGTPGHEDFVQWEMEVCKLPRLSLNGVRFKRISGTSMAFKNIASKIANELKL
Sequence of Inhibitor of nuclear factor kappa-B kinase subunit beta (Homo sapiens) (O14920 whole entry): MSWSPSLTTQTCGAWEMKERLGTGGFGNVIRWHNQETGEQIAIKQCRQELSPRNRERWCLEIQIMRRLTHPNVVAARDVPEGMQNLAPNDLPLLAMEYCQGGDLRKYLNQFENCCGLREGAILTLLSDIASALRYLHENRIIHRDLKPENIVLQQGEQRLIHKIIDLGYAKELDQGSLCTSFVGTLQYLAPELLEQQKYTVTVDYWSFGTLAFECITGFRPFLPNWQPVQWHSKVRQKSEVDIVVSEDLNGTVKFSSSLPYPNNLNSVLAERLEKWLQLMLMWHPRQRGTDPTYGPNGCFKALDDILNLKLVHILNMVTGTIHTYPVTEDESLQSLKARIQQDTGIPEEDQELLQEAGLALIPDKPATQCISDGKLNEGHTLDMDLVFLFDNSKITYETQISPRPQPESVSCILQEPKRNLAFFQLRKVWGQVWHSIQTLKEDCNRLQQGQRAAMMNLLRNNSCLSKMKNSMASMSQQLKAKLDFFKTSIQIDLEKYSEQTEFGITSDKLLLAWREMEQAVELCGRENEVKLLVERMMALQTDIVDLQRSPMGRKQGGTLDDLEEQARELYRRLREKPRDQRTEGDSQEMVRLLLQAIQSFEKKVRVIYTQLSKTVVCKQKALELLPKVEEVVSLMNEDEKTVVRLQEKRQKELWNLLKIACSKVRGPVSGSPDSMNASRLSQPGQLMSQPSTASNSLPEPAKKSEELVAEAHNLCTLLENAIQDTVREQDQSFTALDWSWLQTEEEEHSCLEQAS
Sequence of Fibroblast growth factor receptor 1 (Homo sapiens) (P11362 22-822 limits assumed): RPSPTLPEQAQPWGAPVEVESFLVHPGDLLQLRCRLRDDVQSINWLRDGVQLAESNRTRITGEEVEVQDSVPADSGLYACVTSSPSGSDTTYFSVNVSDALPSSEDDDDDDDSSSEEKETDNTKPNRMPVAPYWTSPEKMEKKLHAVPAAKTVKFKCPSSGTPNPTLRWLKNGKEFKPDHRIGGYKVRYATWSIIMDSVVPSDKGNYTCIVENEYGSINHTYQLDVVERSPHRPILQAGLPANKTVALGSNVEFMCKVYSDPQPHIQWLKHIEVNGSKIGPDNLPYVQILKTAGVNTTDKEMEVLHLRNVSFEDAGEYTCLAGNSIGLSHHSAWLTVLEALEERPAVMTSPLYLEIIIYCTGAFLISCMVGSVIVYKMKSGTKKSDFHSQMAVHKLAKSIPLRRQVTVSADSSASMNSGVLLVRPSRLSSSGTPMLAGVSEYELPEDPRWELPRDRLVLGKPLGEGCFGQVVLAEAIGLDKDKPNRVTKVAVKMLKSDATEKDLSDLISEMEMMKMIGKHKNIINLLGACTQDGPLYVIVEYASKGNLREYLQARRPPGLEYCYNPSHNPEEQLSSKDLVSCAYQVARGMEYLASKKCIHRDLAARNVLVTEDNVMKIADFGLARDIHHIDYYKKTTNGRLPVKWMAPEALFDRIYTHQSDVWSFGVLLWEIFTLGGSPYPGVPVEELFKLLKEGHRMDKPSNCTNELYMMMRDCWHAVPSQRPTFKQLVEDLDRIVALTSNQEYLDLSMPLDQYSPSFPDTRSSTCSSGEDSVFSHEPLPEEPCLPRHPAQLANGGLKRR
Sequence of Epithelial discoidin domain-containing receptor 1 (Homo sapiens) (Q08345 whole entry, the tested form may be a part): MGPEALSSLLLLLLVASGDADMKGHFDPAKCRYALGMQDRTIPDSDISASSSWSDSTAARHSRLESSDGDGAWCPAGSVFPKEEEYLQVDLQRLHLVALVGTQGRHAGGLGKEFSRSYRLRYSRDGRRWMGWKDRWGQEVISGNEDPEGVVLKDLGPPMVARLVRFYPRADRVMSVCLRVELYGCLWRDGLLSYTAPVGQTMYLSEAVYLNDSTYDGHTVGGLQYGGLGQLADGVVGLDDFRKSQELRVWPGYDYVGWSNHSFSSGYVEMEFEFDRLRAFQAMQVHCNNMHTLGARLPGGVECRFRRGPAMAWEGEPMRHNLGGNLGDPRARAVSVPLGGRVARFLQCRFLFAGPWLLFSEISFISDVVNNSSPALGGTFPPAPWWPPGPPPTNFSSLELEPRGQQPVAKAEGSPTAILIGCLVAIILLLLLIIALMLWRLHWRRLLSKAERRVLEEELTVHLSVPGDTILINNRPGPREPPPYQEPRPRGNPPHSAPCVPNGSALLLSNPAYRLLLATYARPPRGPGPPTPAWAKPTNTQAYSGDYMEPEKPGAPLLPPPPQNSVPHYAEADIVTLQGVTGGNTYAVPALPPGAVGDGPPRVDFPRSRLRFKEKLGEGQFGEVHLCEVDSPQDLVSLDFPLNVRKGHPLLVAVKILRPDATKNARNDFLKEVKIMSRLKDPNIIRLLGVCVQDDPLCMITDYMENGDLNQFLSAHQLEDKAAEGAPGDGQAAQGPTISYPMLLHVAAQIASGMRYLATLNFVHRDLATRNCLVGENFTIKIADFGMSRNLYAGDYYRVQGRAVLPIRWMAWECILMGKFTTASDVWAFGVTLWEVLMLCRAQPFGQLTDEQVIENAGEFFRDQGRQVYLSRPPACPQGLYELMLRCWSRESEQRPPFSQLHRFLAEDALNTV
Sequence of Casein kinase II subunit alpha' (Homo sapiens) (P19784 whole entry, looked up): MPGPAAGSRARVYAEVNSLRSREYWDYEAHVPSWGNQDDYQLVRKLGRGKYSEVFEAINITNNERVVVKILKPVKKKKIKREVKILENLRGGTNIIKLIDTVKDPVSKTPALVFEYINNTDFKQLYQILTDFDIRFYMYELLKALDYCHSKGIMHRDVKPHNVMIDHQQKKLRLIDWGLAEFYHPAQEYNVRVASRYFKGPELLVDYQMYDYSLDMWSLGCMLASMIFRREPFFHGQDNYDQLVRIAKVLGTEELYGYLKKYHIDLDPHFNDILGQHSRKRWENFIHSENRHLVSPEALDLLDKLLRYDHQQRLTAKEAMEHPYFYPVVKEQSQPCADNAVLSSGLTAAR
Sequence of Serine/threonine-protein kinase 4 (Homo sapiens) (Q13043 whole entry): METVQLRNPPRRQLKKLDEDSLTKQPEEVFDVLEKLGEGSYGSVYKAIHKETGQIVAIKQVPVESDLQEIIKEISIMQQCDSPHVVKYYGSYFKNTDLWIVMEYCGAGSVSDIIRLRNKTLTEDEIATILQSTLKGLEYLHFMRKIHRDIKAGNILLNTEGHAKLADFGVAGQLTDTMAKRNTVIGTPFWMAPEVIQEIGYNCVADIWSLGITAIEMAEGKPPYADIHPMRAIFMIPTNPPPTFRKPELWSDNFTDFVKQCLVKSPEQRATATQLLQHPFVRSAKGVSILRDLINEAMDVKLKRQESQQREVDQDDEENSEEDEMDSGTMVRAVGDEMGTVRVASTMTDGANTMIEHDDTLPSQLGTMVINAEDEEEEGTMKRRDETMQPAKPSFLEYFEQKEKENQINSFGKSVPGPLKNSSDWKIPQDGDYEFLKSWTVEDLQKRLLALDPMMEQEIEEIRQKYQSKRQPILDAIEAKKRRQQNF

FC(F)(F)c1ccc2c(c1)nc(-c1cccnc1)n2C1CC1 [MSD-CYP11B2-Negative-control]
inactive: residual activity [1] 100% | residual activity [2] 100% | residual activity [3] 100% | residual activity [4] 100% | residual activity [5] 100% | residual activity [6] 83% | residual activity [7] 99% | residual activity [8] 100% | residual activity [9] 100% | residual activity [10] 100% | residual activity [11] 100% | residual activity [12] 93% | residual activity [13] 100% | residual activity [14] 100% | residual activity [15] 84% | residual activity [16] 100% | residual activity [17] 100% | inhibition [18] -8.72% | residual activity [19] 100% | residual activity [20] 100% | residual activity [21] 67% | residual activity [22] 100% | residual activity [23] 100% | residual activity [24] 97% | residual activity [25] 100% | residual activity [26] 100% | residual activity [27] 100% | residual activity [28] 100% | residual activity [29] 100% | residual activity [30] 100% | residual activity [31] 100% | residual activity [32] 100% | residual activity [33] 100% | residual activity [34] 100% | residual activity [35] 100% | residual activity [36] 100% | residual activity [37] 100% | residual activity [38] 100% | residual activity [39] 89%

CC(C)(O)c1cncc(-c2nc3ccc(F)cc3n2C2CC2)c1 [MSD-CYP11B2]
inactive: residual activity [1] 100% | residual activity [2] 100% | residual activity [3] 100% | residual activity [4] 100% | residual activity [5] 100% | residual activity [6] 99% | residual activity [7] 100% | residual activity [8] 100% | residual activity [9] 100% | residual activity [10] 100% | residual activity [11] 100% | residual activity [12] 100% | residual activity [13] 100% | residual activity [14] 100% | residual activity [15] 93% | residual activity [16] 100% | residual activity [17] 100% | inhibition [18] -6.88% | residual activity [19] 100% | residual activity [20] 100% | residual activity [21] 71% | residual activity [22] 100% | residual activity [23] 100% | residual activity [24] 100% | residual activity [25] 100% | residual activity [26] 100% | residual activity [27] 100% | residual activity [28] 100% | residual activity [29] 100% | residual activity [30] 100% | residual activity [31] 100% | residual activity [32] 100% | residual activity [33] 100% | residual activity [34] 100% | residual activity [35] 100% | residual activity [36] 100% | residual activity [37] 100% | residual activity [38] 99% | residual activity [39] 100%
